# Test results reported in PubChem BioAssay AID330 (DTP/NCI, 2004).
# Several values for one entry are separate records, joined by “and”; a condition that tells them apart may be missing. Equal values may be shown once. Inconclusive results and toxic doses are left out.
# System: P388 leukemia ip, CD2F1 mice, survival T/C
# Assay: NCI In Vivo Anticancer Drug Screen. Data for tumor model P388 Leukemia (intraperitoneal) in CD2F1 (CDF1) mice
# Settings: endpoint: median survival time, higher = longer survival
# In short: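 Mice carrying the transplanted tumor received test compound or vehicle. Survival was recorded in each group, and the value is the treated-group measurement divided by that of the vehicle-treated control group.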
# [1] = dose: 200.0 mg/kg/injection, schedule: Q01DX001 (ip), vehicle: saline with Tween-80
# [2] = dose: 400.0 mg/kg/injection, schedule: Q01DX001 (ip), vehicle: saline with Tween-80
# [3] = dose: 60.0 mg/kg/injection, schedule: Q01DX005 (ip), vehicle: saline with Tween-80
# [4] = dose: 120.0 mg/kg/injection, schedule: Q01DX005 (ip), vehicle: saline with Tween-80
# [5] = dose: 240.0 mg/kg/injection, schedule: Q01DX005 (ip), vehicle: saline with Tween-80
# [6] = dose: 50.0 mg/kg/injection, schedule: Q01DX005 (ip), vehicle: saline with Tween-80
# [7] = dose: 100.0 mg/kg/injection, schedule: Q01DX005 (ip), vehicle: saline with Tween-80
# [8] = dose: 60.0 mg/kg/injection, schedule: Q01DX005 (ip), vehicle: Klucel (hydroxypropylcellulose) (HPC)
# [9] = dose: 120.0 mg/kg/injection, schedule: Q01DX005 (ip), vehicle: Klucel (hydroxypropylcellulose) (HPC)
# [10] = dose: 240.0 mg/kg/injection, schedule: Q01DX005 (ip), vehicle: Klucel (hydroxypropylcellulose) (HPC)
# [11] = dose: 100.0 mg/kg/injection, schedule: Q04DX003 (ip), vehicle: Klucel (hydroxypropylcellulose) (HPC)
# [12] = dose: 100.0 mg/kg/injection, schedule: Q04DX003 (ip), vehicle: saline with Tween-80
# [13] = dose: 200.0 mg/kg/injection, schedule: Q04DX003 (ip), vehicle: saline with Tween-80
# [14] = dose: 400.0 mg/kg/injection, schedule: Q04DX003 (ip), vehicle: saline with Tween-80
# [15] = dose: 50.0 mg/kg/injection, schedule: Q01DX005 (ip), vehicle: distilled water + Tween-80
# [16] = dose: 100.0 mg/kg/injection, schedule: Q01DX005 (ip), vehicle: distilled water + Tween-80
# [17] = dose: 200.0 mg/kg/injection, schedule: Q01DX005 (ip), vehicle: distilled water + Tween-80
# [18] = dose: 50.0 mg/kg/injection, schedule: Q01DX005 (ip), vehicle: Klucel (hydroxypropylcellulose) (HPC)
# [19] = dose: 100.0 mg/kg/injection, schedule: Q01DX005 (ip), vehicle: Klucel (hydroxypropylcellulose) (HPC)
# [20] = dose: 200.0 mg/kg/injection, schedule: Q01DX005 (ip), vehicle: Klucel (hydroxypropylcellulose) (HPC)
compound,measurement,setting,value
OC[CH2][Hg][Br],T/C,"dose: 0.37 mg/kg/injection, schedule: Q01DX009 (ip), vehicle: saline",101 % of control
same,T/C,"dose: 0.75 mg/kg/injection, schedule: Q01DX009 (ip), vehicle: saline",101 % of control
same,T/C,"dose: 1.5 mg/kg/injection, schedule: Q01DX009 (ip), vehicle: saline",101 % of control
same,T/C,"dose: 3.0 mg/kg/injection, schedule: Q01DX009 (ip), vehicle: saline",118 % of control
same,T/C,"dose: 6.0 mg/kg/injection, schedule: Q01DX009 (ip), vehicle: saline",104 % of control
CCOC(=O)/C=C(/CC(=O)OCC)OCC,T/C,"dose: 50.0 mg/kg/injection, schedule: Q01DX009 (ip), vehicle: saline",100 % of control
same,T/C,"dose: 100.0 mg/kg/injection, schedule: Q01DX009 (ip), vehicle: saline",89 % of control
same,T/C,"dose: 200.0 mg/kg/injection, schedule: Q01DX009 (ip), vehicle: saline",90 % of control
same,T/C,"dose: 400.0 mg/kg/injection, schedule: Q01DX009 (ip), vehicle: saline",101 % of control
CC(=O)Nc1ccc(SSc2ccc(NC(C)=O)s2)s1,T/C,"dose: 50.0 mg/kg/injection, schedule: Q01DX001 (ip), vehicle: saline with Tween-80",86 % of control
same,T/C,[1],90 % of control
same,T/C,[2],97 % of control
C=CN=NNc1ccc(OC)cc1,T/C,"dose: 100.0 mg/kg/injection, schedule: Q04DX003 (ip), vehicle: saline + Tween-80 + alcohol",116 % of control
same,T/C,"dose: 200.0 mg/kg/injection, schedule: Q04DX003 (ip), vehicle: saline + Tween-80 + alcohol",106 % of control
COc1cccc2c1C(=O)c1c(O)c3c(c(O)c1C2=O)C[C@@](O)(C(C)=O)C[C@@H]3OC1CC(O)C(O)C(C)O1 (some centres undefined),T/C,"dose: 12.5 mg/kg/injection, schedule: Q04DX003 (ip), vehicle: water",123 % of control
same,T/C,"dose: 100.0 mg/kg/injection, schedule: Q04DX003 (ip), vehicle: water",161 % of control
same,T/C,"dose: 200.0 mg/kg/injection, schedule: Q04DX003 (ip), vehicle: water",192 % of control
O=C1C=CC(Nc2ccc(Cl)c(Cl)c2)C1Nc1ccc(Cl)c(Cl)c1 (centres undefined),T/C,[3],100 % of control
same,T/C,[4],93 % of control
same,T/C,[5],93 % of control
COc1ccc2c(C(=O)c3ccccc3)c3[n+](cc2c1OC)CCc1cc2c(cc1-3)OCO2,T/C,"dose: 6.25 mg/kg/injection, schedule: Q01DX005 (ip), vehicle: Klucel (hydroxypropylcellulose) (HPC)",103 % of control
same,T/C,"dose: 12.5 mg/kg/injection, schedule: Q01DX005 (ip), vehicle: Klucel (hydroxypropylcellulose) (HPC)",103 % of control
N#Cc1c(C(=O)NN)c2c(-c3ccc4ccccc4c3)n[nH]c(=O)c2[nH]c1=O,T/C,[6],91 % of control
same,T/C,[7],95 % of control
same,T/C,"dose: 200.0 mg/kg/injection, schedule: Q01DX005 (ip), vehicle: saline with Tween-80",86 % of control
CC1(c2ccco2)NC(=O)N(Cl)C1=O (centres undefined),T/C,"dose: 100.0 mg/kg/injection, schedule: Q04DX003 (ip), vehicle: saline",104 % of control
same,T/C,"dose: 200.0 mg/kg/injection, schedule: Q04DX003 (ip), vehicle: saline",90 % of control
C1CC[C@]2([C@]34CCCC[C@H]3O4)O[C@@H]2C1,T/C,[8],99 % of control
same,T/C,[9],100 % of control
same,T/C,[10],104 % of control
O=P(C(=S)Nc1ccc(S(=O)(=O)N2CCCCC2)cc1)(c1ccccc1)c1ccccc1,T/C,"dose: 50.0 mg/kg/injection, schedule: Q01DX009 (ip), vehicle: Klucel (hydroxypropylcellulose) (HPC)",97 % of control
same,T/C,"dose: 100.0 mg/kg/injection, schedule: Q01DX009 (ip), vehicle: Klucel (hydroxypropylcellulose) (HPC)",95 % of control
same,T/C,"dose: 200.0 mg/kg/injection, schedule: Q01DX009 (ip), vehicle: Klucel (hydroxypropylcellulose) (HPC)",98 % of control
Cn1c(-c2ccccc2)c2c(=O)oc3ccccc3c2c1-c1ccccc1,T/C,"dose: 25.0 mg/kg/injection, schedule: Q04DX003 (ip), vehicle: Klucel (hydroxypropylcellulose) (HPC)",97 % of control
same,T/C,"dose: 50.0 mg/kg/injection, schedule: Q04DX003 (ip), vehicle: Klucel (hydroxypropylcellulose) (HPC)",100 % of control
same,T/C,[11],88 % of control and 94 % of control
O=C1c2cccnc2C(=O)N1Cc1ccccc1,T/C,[12],95 % of control
same,T/C,[13],95 % of control
same,T/C,[14],90 % of control
C[C@]12CC[C@H]3C(=CCc4cc(O)ccc43)[C@@H]1C/C(=N\O)C2=O,T/C,"dose: 100.0 mg/kg/injection, schedule: Q01DX009 (ip), vehicle: saline with Tween-80",115 % of control
same,T/C,[12],100 % of control
same,T/C,"dose: 200.0 mg/kg/injection, schedule: Q01DX009 (ip), vehicle: saline with Tween-80",120 % of control
same,T/C,[13],104 % of control
same,T/C,[14],95 % of control
Cc1cc(C)c(CCl)cc1CCl,T/C,"dose: 20.0 mg/kg/injection, schedule: Q04DX003 (ip), vehicle: saline with Tween-80",113 % of control
same,T/C,"dose: 40.0 mg/kg/injection, schedule: Q04DX003 (ip), vehicle: saline with Tween-80",118 % of control
same,T/C,"dose: 80.0 mg/kg/injection, schedule: Q04DX003 (ip), vehicle: saline with Tween-80",90 % of control
COc1cc(C2c3cc4c(cc3OC(C)(O)C2C(C)=O)OCO4)cc(OC)c1O (centres undefined),T/C,[3],95 % of control
same,T/C,[4],97 % of control
same,T/C,[5],90 % of control
Cc1ccc(S(=O)(=O)N2CCCN(S(=O)(=O)c3ccc(C)cc3)COC2)cc1,T/C,[8],102 % of control
same,T/C,[9],101 % of control
same,T/C,[10],102 % of control
Cc1cc2c(cc1C)NC1C(=O)C(c3ccc(Cl)c(Cl)c3)OC1=N2 (centres undefined),T/C,"dose: 30.0 mg/kg/injection, schedule: Q01DX005 (ip), vehicle: Klucel (hydroxypropylcellulose) (HPC)",91 % of control
same,T/C,[8],91 % of control
same,T/C,[9],93 % of control
same,T/C,[10],86 % of control
CC(C)C(CO)NC(=O)c1ccccc1 (centres undefined),T/C,"dose: 100.0 mg/kg/injection, schedule: Q04DX002 (ip), vehicle: Klucel (hydroxypropylcellulose) (HPC)",95 % of control
same,T/C,"dose: 200.0 mg/kg/injection, schedule: Q04DX002 (ip), vehicle: Klucel (hydroxypropylcellulose) (HPC)",96 % of control
same,T/C,"dose: 400.0 mg/kg/injection, schedule: Q04DX002 (ip), vehicle: Klucel (hydroxypropylcellulose) (HPC)",95 % of control
COc1cc(C(C)c2cc3c(cc2OC)OCO3)ccc1OCc1ccccc1 (centres undefined),T/C,"dose: 25.0 mg/kg/injection, schedule: Q01DX005 (ip), vehicle: distilled water + Tween-80",103 % of control
same,T/C,[15],99 % of control and 87 % of control
same,T/C,[16],100 % of control
same,T/C,[17],94 % of control
N#Cc1ccccc1NN=Nc1ccccc1-c1nc(N)nc(N)n1,T/C,"dose: 12.0 mg/kg/injection, schedule: Q04DX003 (ip), vehicle: saline",113 % of control
same,T/C,"dose: 25.0 mg/kg/injection, schedule: Q04DX003 (ip), vehicle: saline",113 % of control
same,T/C,"dose: 50.0 mg/kg/injection, schedule: Q04DX003 (ip), vehicle: saline",181 % of control
CCCCOC(=O)NC(=O)c1cc2cc(Cl)cc(Cl)c2oc1=O,T/C,[6],90 % of control
same,T/C,[7],91 % of control
O=C1c2ccccc2C(=O)N1C(=NCc1ccccc1)c1ccccc1,T/C,[11],104 % of control
same,T/C,"dose: 200.0 mg/kg/injection, schedule: Q04DX003 (ip), vehicle: Klucel (hydroxypropylcellulose) (HPC)",104 % of control
same,T/C,"dose: 400.0 mg/kg/injection, schedule: Q04DX003 (ip), vehicle: Klucel (hydroxypropylcellulose) (HPC)",109 % of control
COc1ccc(-c2c(C#N)c(N)nc(C)c2-c2ccccc2)cc1,T/C,"dose: 100.0 mg/kg/injection, schedule: Q01DX001 (ip), vehicle: saline with Tween-80",100 % of control
same,T/C,[1],96 % of control
same,T/C,[2],91 % of control
COC(=O)COc1cc2c(cc1C(C)c1ccc(OCc3ccccc3)cc1)OCO2 (centres undefined),T/C,[15],89 % of control
same,T/C,[16],99 % of control
same,T/C,[17],106 % of control and 88 % of control
Cc1nc2ccccc2c2nnc(SCC(=O)N(Cc3ccccc3)c3ccccc3)n12,T/C,[18],99 % of control
same,T/C,[19],100 % of control
same,T/C,[20],102 % of control
CCOC(=O)COc1cc2c(cc1C(C)c1ccc(OC)cc1)OCO2 (centres undefined),T/C,[18],104 % of control
same,T/C,[19],100 % of control
same,T/C,[20],94 % of control
